Experimental data as given in patent publication US4327210A, “Thiazolylacelamide cephalosporins” (Hoffmann-La Roche Inc., priority 1978, dated 1982).
≈ marks a conversion by molar mass, not a printed value.

Key:
[1] = test system: Escherichia coli; test: In vivo activity in mice infected intraperitoneally with Escherichia coli; conditions: sc, 96 h, read-out: CD50 (dose with which 50% of the test animals survive); mice infected i.p. with Escherichia coli; s.c. 1, 2 1/2 and 4 hours after infection; survival on fourth day; by interpolation
Method: Groups of 5 mice are infected intraperitoneally with an aqueous suspension of Escherichia coli. The test substance is administered subcutaneously in physiological common salt solution three times, i.e. 1 hour, 21/2 hours and 4 hours, after the infection. The number of surviving animals is determined on the fourth day.

[2] = test system: Pseudomonas aeruginosa; test: In vitro antimicrobial activity (minimum inhibitory concentration); type: cell-based
From the text: (§1) In vitro activity: minimum inhibitory concentration (μg/ml)

[3] = test system: Staphylococcus aureus; test: as above; type: cell-based
From the text: as §1

[4] = test system: Haemophilus influenzae; test: as above; type: cell-based
From the text: as §1

[5] = test system: Proteus mirabilis; test: as above; type: cell-based
From the text: as §1

[6] = test system: Serratia marcescens; test: as above; type: cell-based
From the text: as §1

[7] = test system: Proteus rettgeri; test: as above; type: cell-based; conditions: Providencia rettgeri
From the text: as §1

[8] = test system: Escherichia coli; test: as above; type: cell-based
From the text: as §1

[9] = test system: Proteus vulgaris; test: as above; type: cell-based
From the text: as §1

[10] = test system: Klebsiella pneumoniae; test: as above; type: cell-based
From the text: as §1

[11] = in vivo
[12] = Pseudomonas aeruginosa strain 1
[13] = Pseudomonas aeruginosa strain 2
[14] = Pseudomonas aeruginosa strain 3
[15] = Pseudomonas aeruginosa strain 4
[16] = Pseudomonas aeruginosa strain 5
[17] = Pseudomonas aeruginosa strain 6
[18] = Pseudomonas aeruginosa strain 7
[19] = ATCC6538, Staphylococcus aureus strain ATCC 6538
[20] = Staphylococcus aureus pencillin-resistant strain
[21] = Haemophilus influenzae strain 1
[22] = Haemophilus influenzae strain 2
[23] = Haemophilus influenzae strain 3
[24] = Haemophilus influenzae strain 4
[25] = Haemophilus influenzae strain 5
[26] = Haemophilus influenzae strain 6
[27] = Haemophilus influenzae strain 7

SMILES	ED50 [1] [mg/kg]	MIC [2, 12] [mg/L]	MIC [2, 13] [mg/L]	MIC [2, 14] [mg/L]	MIC [2, 15] [mg/L]	MIC [2, 16] [mg/L]	MIC [2, 17] [mg/L]	MIC [2, 18] [mg/L]	MIC [3, 19] [mg/L]	MIC [3, 20] [mg/L]	MIC [4, 21] [mg/L]	MIC [4, 22] [mg/L]	MIC [4, 23] [mg/L]	MIC [4, 24] [mg/L]	MIC [4, 25] [mg/L]	MIC [4, 26] [mg/L]	MIC [4, 27] [mg/L]	MIC ([5]; Proteus mirabilis strain 1) [mg/L]	MIC ([5]; Proteus mirabilis strain 2) [mg/L]	MIC [6] [mg/L]	also measured
CO/N=C(\C(=O)N[C@@H]1C(=O)N2C(C(=O)O)=C(CSc3nc(=O)c(O)nn3C)CS[C@H]12)c1csc(N)n1 [Product A]	≤ 0.005	0.3 (≈ 0.541 µM)	10 (≈ 18 µM)	2.5 (≈ 4.51 µM)	5 (≈ 9.02 µM)	5 (≈ 9.02 µM)	10 (≈ 18 µM)	5 (≈ 9.02 µM)	2.5 (≈ 4.51 µM)	2.5 (≈ 4.51 µM)	0.08 (≈ 0.144 µM)	0.005 (≈ 0.00902 µM)	0.005 (≈ 0.00902 µM)	0.005 (≈ 0.00902 µM)	0.0025 (≈ 0.00451 µM)	0.0025 (≈ 0.00451 µM)	0.0025 (≈ 0.00451 µM)	≤ 0.01	≤ 0.01	0.08 (≈ 0.144 µM)	MIC [7]: ≤ 0.01 mg/L; MIC ([8]; Escherichia coli strain 1): 0.02 mg/L (≈ 0.0361 µM); MIC ([8]; Escherichia coli strain 2): 0.6 mg/L (≈ 1.08 µM); MIC [9]: ≤ 0.01 mg/L; MIC [10]: 1.2 mg/L (≈ 2.16 µM)
CO/N=C(\C(=O)N[C@@H]1C(=O)N2C(C(=O)O)=C(CSc3nc(=O)c(O)nn3C)CS[C@H]12)c1csc(NC(=O)CCl)n1 [Product B, (6R,7R)-7-[2-[2-(2-Chloroacetamido)-4-thiazolyl]-2-(Z-methoxyimino)acetamido]-3-[[(2,5-dihydro-6-hydroxy-2-methyl-5-oxo-as-triazin-3-yl)thiol]methyl]-8-oxo-5-thia-1-azabicyclo[4.2.0]oct-2-ene-2-carboxylic acid]	0.16	1.2 (≈ 1.9 µM)	> 80	40 (≈ 63.4 µM)	80 (≈ 127 µM)	80 (≈ 127 µM)	80 (≈ 127 µM)	80 (≈ 127 µM)	2.5 (≈ 3.96 µM)	5 (≈ 7.92 µM)	1.2 (≈ 1.9 µM)	0.3 (≈ 0.475 µM)	0.16 (≈ 0.254 µM)	0.16 (≈ 0.254 µM)	0.08 (≈ 0.127 µM)	0.16 (≈ 0.254 µM)	0.16 (≈ 0.254 µM)	0.08 (≈ 0.127 µM)	0.16 (≈ 0.254 µM)	2.5 (≈ 3.96 µM)	LD50 ([11]; iv): 250 to 500 mg/kg; LD50 ([11]; po): > 5000 mg/kg; LD50 ([11]; sc): 2000 to 4000 mg/kg; MIC [7]: 0.16 mg/L (≈ 0.254 µM); MIC ([8]; Escherichia coli strain 1): 0.16 mg/L (≈ 0.254 µM); MIC ([8]; Escherichia coli strain 2): 5 mg/L (≈ 7.92 µM); MIC [9]: 0.16 mg/L (≈ 0.254 µM); MIC [10]: 10 mg/L (≈ 15.8 µM)
